Results from PubChem BioAssay AID1845217 (Molecular Pharmacology Branch, DTP, NCI, 2023).

Test system: VA-ES-BJ tumor spheroid viability
Experiment: Anticancer human tumor VA-ES-BJ cell line growth inhibition;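 further: spheroids exposed to compounds for seven days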;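 on viability, T/C: percent of DMSO vehicle control viability so 100% = untreated growth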
Settings: spheroids with HUVEC and MSC; for IC50: curve of first compound; for viability, T/C: stronger effect = lower value; active means viability on the fitted dose curve at most 10% of control; inactive means the rest
Outline: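 Complex spheroids of malignant cells with endothelial cells and mesenchymal stem cells; agents alone or combined, from near clinical Cmax (or 10 microM if unknown) down in half-log steps, 0.25% DMSO final.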

COc1ccc([C@@H](O)c2cc(-c3ncnc4cc(N5CCOCC5)ccc34)c(F)cc2Cl)nn1 + COc1cc2c(cc1O)CCNC21CSC2c3c(OC(C)=O)c(C)c4c(c3C(COC1=O)N1C(O)C3Cc5cc(C)c(OC)c(O)c5C(C21)N3C)OCO4
0.51 µM: IC50 (second compound 94.9 pM)
inactive: viability, T/C (second compound 30 pM, first compound 0.0316 µM) 124% | viability, T/C (second compound 30 pM, first compound 0.1 µM) 112% | viability, T/C (second compound 30 pM, first compound 0.316 µM) 90.3% | viability, T/C (second compound 30 pM, first compound 1 µM) 43.8% | viability, T/C (second compound 30 pM, first compound 3.16 µM) 15.9% | viability, T/C (second compound 94.9 pM, first compound 0.0316 µM) 111% | viability, T/C (second compound 94.9 pM, first compound 0.1 µM) 108% | viability, T/C (second compound 94.9 pM, first compound 0.316 µM) 64.1% | viability, T/C (second compound 94.9 pM, first compound 1 µM) 29.1% | viability, T/C (second compound 94.9 pM, first compound 3.16 µM) 15% | viability, T/C (second compound 94.9 pM, first compound 10 µM) 11.4% | viability, T/C (second compound 0.0003 µM, first compound 0.0316 µM) 59.6% | viability, T/C (second compound 0.0003 µM, first compound 0.1 µM) 51.3% | viability, T/C (second compound 0.0003 µM, first compound 0.316 µM) 30.5% | viability, T/C (second compound 0.0003 µM, first compound 1 µM) 14%
0.102 µM: IC50 (second compound 0.0003 µM)
< 0.0316 µM: IC50 (second compound 0.000949 µM) | IC50 (second compound 0.003 µM)
0.857 µM: IC50 (second compound 30 pM)
active: viability, T/C (second compound 30 pM, first compound 10 µM) 10.5% | viability, T/C (second compound 0.0003 µM, first compound 3.16 µM) 3.86% | viability, T/C (second compound 0.0003 µM, first compound 10 µM) 0.36% | viability, T/C (second compound 0.000949 µM, first compound 0.0316 µM) 3.29% | viability, T/C (second compound 0.000949 µM, first compound 0.1 µM) 3.11% | viability, T/C (second compound 0.000949 µM, first compound 0.316 µM) 1.76% | viability, T/C (second compound 0.000949 µM, first compound 1 µM) 0.36% | viability, T/C (second compound 0.000949 µM, first compound 3.16 µM) 1.07% | viability, T/C (second compound 0.000949 µM, first compound 10 µM) 2.57% | viability, T/C (second compound 0.003 µM, first compound 0.0316 µM) 2.08% | viability, T/C (second compound 0.003 µM, first compound 0.1 µM) 3.06% | viability, T/C (second compound 0.003 µM, first compound 0.316 µM) 2.71% | viability, T/C (second compound 0.003 µM, first compound 1 µM) 4.43% | viability, T/C (second compound 0.003 µM, first compound 3.16 µM) 5.13% | viability, T/C (second compound 0.003 µM, first compound 10 µM) 6.09%

CC1COCCN1c1cc(-c2ccnn2C)c2ccnc(-c3ccn[nH]3)c2n1 (stereo not given) + Cn1nnc2c(C(N)=O)ncn2c1=O
active: viability, T/C (second compound 1 µM, first compound 3.16 µM) 6.9% | viability, T/C (second compound 1 µM, first compound 10 µM) 6.16% | viability, T/C (second compound 3.16 µM, first compound 3.16 µM) 6.96% | viability, T/C (second compound 3.16 µM, first compound 10 µM) 5.94% | viability, T/C (second compound 10 µM, first compound 3.16 µM) 6.49% | viability, T/C (second compound 10 µM, first compound 10 µM) 6.12% | viability, T/C (second compound 31.6 µM, first compound 3.16 µM) 6.7% | viability, T/C (second compound 31.6 µM, first compound 10 µM) 5.99% | viability, T/C (second compound 100 µM, first compound 1 µM) 8.87% | viability, T/C (second compound 100 µM, first compound 3.16 µM) 6.58% | viability, T/C (second compound 100 µM, first compound 10 µM) 5.6%
0.127 µM: IC50 (second compound 3.16 µM)
inactive: viability, T/C (second compound 1 µM, first compound 0.0316 µM) 94.7% | viability, T/C (second compound 1 µM, first compound 0.1 µM) 52.9% | viability, T/C (second compound 1 µM, first compound 0.316 µM) 29% | viability, T/C (second compound 1 µM, first compound 1 µM) 8.26% | viability, T/C (second compound 3.16 µM, first compound 0.0316 µM) 85.2% | viability, T/C (second compound 3.16 µM, first compound 0.1 µM) 54.7% | viability, T/C (second compound 3.16 µM, first compound 0.316 µM) 30.1% | viability, T/C (second compound 3.16 µM, first compound 1 µM) 9.03% | viability, T/C (second compound 10 µM, first compound 0.0316 µM) 87.7% | viability, T/C (second compound 10 µM, first compound 0.1 µM) 51.8% | viability, T/C (second compound 10 µM, first compound 0.316 µM) 26.4% | viability, T/C (second compound 10 µM, first compound 1 µM) 8.47% | viability, T/C (second compound 31.6 µM, first compound 0.0316 µM) 81.3% | viability, T/C (second compound 31.6 µM, first compound 0.1 µM) 44% | viability, T/C (second compound 31.6 µM, first compound 0.316 µM) 23.2% | viability, T/C (second compound 31.6 µM, first compound 1 µM) 9.91% | viability, T/C (second compound 100 µM, first compound 0.0316 µM) 62.7% | viability, T/C (second compound 100 µM, first compound 0.1 µM) 37.2% | viability, T/C (second compound 100 µM, first compound 0.316 µM) 18.4%
0.111 µM: IC50 (second compound 10 µM)
0.118 µM: IC50 (second compound 1 µM)
0.0561 µM: IC50 (second compound 100 µM)
0.0841 µM: IC50 (second compound 31.6 µM)
